# Results: ChEMBL document CHEMBL5604066, “ASAP - DENV-4 NS2B-NS3 protease fluorescence dose response” (2024)
# Values joined by “and” are separate entries in the source; they are usually repeats but may differ in a detail not shown here. Equal entries are not always repeated.
# Biological target: T1, NS3 protease (dengue virus type 4, UniProt A0A0K0TQ36)
# T1 sequence (A0A0K0TQ36 whole entry): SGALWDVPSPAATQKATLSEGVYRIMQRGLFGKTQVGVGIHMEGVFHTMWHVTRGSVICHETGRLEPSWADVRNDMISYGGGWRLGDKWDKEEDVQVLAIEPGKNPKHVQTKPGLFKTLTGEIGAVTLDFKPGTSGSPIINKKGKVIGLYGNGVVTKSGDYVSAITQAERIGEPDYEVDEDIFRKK
# Assay: Functional biochemical assay to identify treatments for viral infectious disease that targets Dengue virus type 4 NS2B-NS3 protease. Utilizing a direct enzyme activity measurement method, reading the fluorescence intensity is used to characterize the relative potency of inhibitors as IC50.
# Set-up: species or system Philippines/H241/1956
row,Compound,IC50
1,N=C(N)NCCC[C@H](NC(=O)c1nccs1)C(=O)N[C@@H](CCCCN)C(=O)N[C@@H](C(N)=O)c1ccc(OCc2ccc(C(F)(F)F)cc2)cc1,2.58 µM and 1.74 µM and 2.67 µM and 1.47 µM and 1.14 µM and 1.86 µM and 1.06 µM
2,N=C(N)NCCC[C@H](NC(=O)[C@H](Cc1ccc(CN)cc1)NC(=O)c1ccccc1)B(O)O,0.793 µM and 0.503 µM
3,COCCNC(=O)[C@H](Nc1ccc2c(c1)CNC2)c1cc(Cl)cc(C2CC2)c1,> 99.5 µM
4,O=C(NCC(F)F)[C@H](Nc1ccc2c(c1)CNC2)c1cc(Cl)cc(C2CC2)c1,> 99.5 µM
5,O=C(Nc1ccc2c(c1)CNCC2)c1cc(Cl)cc2[nH]ncc12,> 99.5 µM
6,CC(C)(C)c1cc(Br)cc(C(=O)Nc2ccc3c(c2)CNC3)c1,> 99.5 µM
7,Clc1ccc2[nH]cc(Cc3ccc(-c4nn[nH]n4)cc3)c2c1,99.1 µM
8,CN1Cc2ccc(NC(=O)c3cc(Cl)cc4[nH]ncc34)cc2C1,> 99.5 µM
9,O=C(Nc1ccc2c(c1)CNC2)c1cccc(-c2cnco2)c1,23.3 µM
10,CC(C)NC(=O)[C@H](Nc1ccc2c(c1)CNC2)c1cc(Cl)cc2[nH]ncc12,49.8 µM
11,Cn1cc2cc(Cl)cc(C(=O)Nc3ccc4c(c3)CNC4)c2n1,> 99.5 µM
12,O=C(Nc1ccc2c(c1)CNC2)c1cc(Br)cc2ccccc12,> 99.5 µM
13,O=C(Nc1ccc2c(c1)CNC2)c1cc(Cl)cc2c1CCC2,> 99.5 µM
14,CNC(=O)[C@H](Nc1ccc2c(c1)CNC2)c1cc(Cl)cc(C2CC2)c1,> 99.5 µM
15,O=C1Cc2c(cccc2C(=O)Nc2ccc3c(c2)CNC3)N1,15.1 µM
16,O=C(Nc1ccc2c(c1)CNC2)c1cc(Br)cc2[nH]c(-c3ccccc3)nc12,2.96 µM
17,N#C[C@H](Nc1ccc2c(c1)CNC2)c1cc(Cl)cc(C2CC2)c1,> 99.5 µM
18,O=C(Nc1cc(Cl)cc([C@H]2CN(Cc3ccccc3)C[C@@H]2c2cccc(-c3nn[nH]n3)c2)c1)OCc1ccccc1,6.83 µM
19,Clc1cc(CNc2ccc3c(c2)CNC3)c2cn[nH]c2c1,38.8 µM
20,CC(C)c1cc(Br)cc(C(=O)Nc2ccc3c(c2)CNC3)c1,> 99.5 µM
21,O=C(NC1CCOCC1)[C@H](Nc1ccc2c(c1)CNC2)c1cc(Cl)cc(C2CC2)c1,> 99.5 µM
22,Cn1cc(CNC(=O)[C@H](Nc2ccc3c(c2)CNC3)c2cc(Cl)cc(C3CC3)c2)cn1,> 99.5 µM
23,O=C(Nc1cc(Cl)cc(C(=O)Nc2ccc3c(c2)CNC3)c1)OCc1ccccc1,91.3 µM
24,Cn1cc(CCc2nc3c(C(=O)Nc4ccc5c(c4)CNC5)cc(Cl)cc3[nH]2)cn1,26.4 µM
25,O=C(Nc1ccc2c(c1)CNC2)c1cc(F)cc2[nH]ncc12,> 99.5 µM

row,Compound,IC50
1,Cc1c(C(=O)Nc2cc([C@H]3CCOC3)ccn2)cc(C2CC2)n1C,> 99.5 µM
2,O=C(Nc1ccc2c(c1)CNC2)c1cc(Cl)cc2ccncc12,> 99.5 µM
3,O=C1Cc2c(cc(Br)cc2C(=O)Nc2ccc3c(c2)CNC3)N1,87.9 µM
4,CC(C)NC(=O)[C@H](Nc1ccc2c(c1)CNC2)c1cc(Cl)cc2[nH]c(-c3ccccc3)nc12,14.6 µM and 4.38 µM
5,O=C(Nc1cc(Cl)cc([C@H](C#CCO)Nc2cccc(-c3nn[nH]n3)c2)c1)OCc1ccccc1,15.9 µM
6,NCCc1csc2cc(C(=O)Nc3cc([C@H]4CCOC4)ccn3)ccc12,> 99.5 µM
7,O=C(Nc1ccc2c(c1)CNC2)c1cccc2[nH]c(C(F)(F)F)cc12,> 99.5 µM
8,O=C(Nc1ccc2c(c1)CNC2)c1cc(Cl)cc2cn[nH]c12,> 99.5 µM
9,N#Cc1cccc(-c2nc3c(C(=O)Nc4ccc5c(c4)CNC5)cc(F)cc3[nH]2)c1,2.86 µM
10,NCc1cccc([C@H]2C[C@@H]2c2cc(Cl)cc(NC(=O)OCc3ccccc3)c2)c1,7.94 µM
11,C=CC[C@H]1NCc2cc(NC(=O)c3cccc4c3CC(=O)N4)ccc21,> 99.5 µM
12,N#C[C@H](Nc1cccc(-c2nn[nH]n2)c1)c1cc(Cl)cc(NC(=O)OCc2ccccc2)c1,12.4 µM
13,O=C(Nc1ccc2c(c1)CNC2)c1cc(Cl)cc2[nH]ncc12,> 99.5 µM
14,O=C(Nc1ccc2c(c1)CNC2)c1ccc2[nH]cc(C3CCNCC3)c2c1,36.7 µM
15,O=C(Nc1ccc2c(c1)CNC2)c1cc(Br)cc2[nH]c(=O)[nH]c12,38.7 µM
16,N#C[C@H](Nc1ccc2c(c1)CNC2)c1cc(Cl)cc2[nH]ncc12,> 99.5 µM
17,O=C(Nc1cc(Cl)cc(C(=O)Nc2cccc([C@H]3C[C@H]3C(=O)O)c2)c1)OCc1ccccc1,32.8 µM
18,Clc1cc([C@@H]2C[C@H]2c2cccc(C3CCNCC3)c2)c2cn[nH]c2c1,5.84 µM
19,Cc1c(C(=O)Nc2cc(-c3cccnc3)ccn2)cc(C2CC2)n1C,6.83 µM
20,O=C(NCC(F)F)[C@H](Nc1ccc2c(c1)CNC2)c1cc(F)cc2[nH]ccc12,> 99.5 µM
21,CC(C)c1nnc(-c2nc3c(C(=O)Nc4ccc5c(c4)CNC5)cc(F)cc3[nH]2)s1,9.86 µM
22,C=CC[C@H]1NCc2cc(NC(=O)c3cc(Cl)cc4[nH]ncc34)ccc21,> 99.5 µM
23,Cc1nc2c(C(=O)Nc3ccc4c(c3)CNC4)cc(Cl)cc2[nH]1,26.7 µM
24,O=C(Nc1cc(Cl)cc(-c2ccc3[nH]c(C(=O)O)cc3c2)c1)OCc1ccccc1,6.92 µM
25,O=C(NCCC1CC1)[C@H](Nc1ccc2c(c1)CNC2)c1cc(Cl)cc(C2CC2)c1,> 99.5 µM

row,Compound,IC50
1,NCc1cccc(-c2csc3cc(C(=O)Nc4ccc5c(c4)CNC5)ccc23)c1,43.7 µM
2,N#Cc1cc2c(cc1NC(=O)c1cc(F)cc3[nH]ncc13)CNC2,36.9 µM
3,O=C(Nc1ccc2c(c1)CNC2)c1cc(Cl)cc2cc[nH]c12,> 99.5 µM
4,C=CC[C@H]1NCc2cc(NC(=O)c3cc(F)cc4[nH]ncc34)ccc21,> 99.5 µM
5,O=C(Nc1cc(Br)c2c(c1)CNC2)c1cc(F)cc2[nH]ncc12,> 99.5 µM
6,C=CC[C@H](Nc1cc(Cl)cc(NC(=O)OCc2ccccc2)c1)c1cccc(-c2nn[nH]n2)c1,7.78 µM
7,CNC(=O)[C@H](Nc1cc(CN)cc(C(=O)O)c1)c1cc(Cl)cc(C2CC2)c1,> 99.5 µM
8,O=C(NCC(F)F)[C@H](Nc1ccc2c(c1)CNC2)c1cc(F)cc2[nH]ncc12,> 99.5 µM
9,O=C1Cc2c(cc(F)cc2C(=O)Nc2ccc3c(c2)CNC3)N1,53.7 µM
10,O=C(Nc1cc(Cl)cc([C@H]2C[C@@H]2c2cccc(C3CCNCC3)c2)c1)OCc1ccccc1,5.51 µM
11,O=C(Nc1ccc2c(c1)CNC2)c1ccc2c(C3=CCNCC3)csc2c1,70 µM
12,CC(C)CNC(=O)c1cc(Cl)ccc1NS(=O)(=O)c1ccc(Oc2ccccc2Cl)cc1,15 µM
13,C=CC[C@H]1NCc2cc(N[C@H](C(=O)NC(C)C)c3cc(Cl)cc4[nH]ncc34)ccc21,> 99.5 µM
14,O=C(Nc1ccc2c(c1)CNC2)c1cc(F)cc2[nH]c(-c3ccccc3F)nc12,5.23 µM
15,O=C(NC1CCOCC1)[C@H](Nc1ccc2c(c1)CNC2)c1cc(Cl)cc2[nH]ncc12,43.9 µM
16,CNC(=O)[C@H](Nc1cc(Cl)cc(NC(=O)OCc2ccccc2)c1)c1cccc(-c2nn[nH]n2)c1,61.6 µM
17,O=C(Nc1ccc2c(c1)CNC2)c1cc(F)c2[nH]ccc2c1,> 99.5 µM
18,N[C@H]1CC[C@H](c2ccc(NC(=O)c3cc(Cl)cc(NC(=O)OCc4ccccc4)c3)cc2)C1,7.64 µM
19,Cn1c(=O)[nH]c2c(C(=O)Nc3ccc4c(c3)CNC4)cc(Br)cc21,> 99.5 µM
20,OCC#C[C@H](Nc1ccc2c(c1)CNC2)c1cc(Cl)cc2[nH]ncc12,22.3 µM
21,O=C(Nc1ccc2c(c1)CNC2)c1cc(F)cc2c1CCC2,> 99.5 µM
22,NCc1cccc(NC(=O)c2cc(Cl)cc(NC(=O)OCc3ccccc3)c2)c1,34.6 µM
23,c1cc(C2CCN(Cc3c[nH]c4ccccc34)CC2)c2ccncc2c1,> 99.5 µM
24,Cc1cccc(-c2nc3c(C(=O)Nc4ccc5c(c4)CNC5)cc(Cl)cc3[nH]2)c1O,3.54 µM
25,CNC(=O)[C@H](Nc1cccc(CN)c1)c1cc(Cl)cc(NC(=O)OCc2ccccc2)c1,> 99.5 µM

row,Compound,IC50
1,O=C(Nc1ccc2c(c1)CNC2)c1cccc2[nH]c(=O)[nH]c12,74.5 µM
2,O=C(Nc1ccc2c(c1)CNC2)c1cc(Cl)cc(C(F)(F)F)n1,23 µM
3,O=C(Nc1ccc2c(c1)CNC2)c1cc(F)cc2[nH]c(-c3ccc(F)cc3)nc12,3.65 µM
4,CCc1cc(C(=O)Nc2cccc(-n3nn[nH]c3=O)c2)sc1-c1ccc(Cl)cc1,13.1 µM
5,Cc1c(C(=O)Nc2cc(CCCN)ccn2)cc(C2CC2)n1C,39.2 µM
6,O=C(Nc1ccc2c(c1)CNC2)c1cccc2nc(O)ccc12,> 99.5 µM
7,NCc1ccc([C@H]2C[C@@H]2c2cc(Cl)cc(NC(=O)OCc3ccccc3)c2)cc1,6.87 µM
8,COc1cc(-c2cc(NC(=O)c3cc(F)cc4[nH]ncc34)cc3c2CNC3)ccn1,42.5 µM
9,CCOCCNC(=O)[C@H](Nc1ccc2c(c1)CNC2)c1cc(Cl)cc2[nH]ncc12,> 99.5 µM
10,O=C(Nc1cc(Cl)cc(C(=O)Nc2ccc3c(c2)CCNC3)c1)OCc1ccccc1,32.1 µM
11,CC(C)(c1nc2c(C(=O)Nc3ccc4c(c3)CNC4)cc(F)cc2[nH]1)S(C)(=O)=O,18 µM
12,O=C1Cc2cc(C(=O)Nc3ccc4c(c3)CNC4)ccc2N1,14 µM and 8.21 µM
13,NCCc1csc2cc(C(=O)Nc3ccc4c(c3)CNC4)ccc12,> 99.5 µM
14,Cc1ccc(NC(=O)c2cc(Cl)cc(NC(=O)OCc3ccccc3)c2)cc1CN,70.7 µM
15,O=C(Nc1ccc2c(c1)CNC2)c1cc(F)cc2[nH]c(-c3ccccc3)nc12,5.41 µM
16,O=C(Nc1ccc2c(c1)CNC2)c1cc(Cl)cc2nn(-c3ccccc3)nc12,5.25 µM
17,Cc1[nH]c2ccccc2c1CN1CCC(c2c[nH]c3ncccc23)CC1,> 99.5 µM
18,O=C(Nc1ccc2c(c1)CNC2)c1cccc2cn[nH]c12,45 µM
19,O=C(Nc1cc2c(cc1Br)CNC2)c1cc(F)cc2[nH]ncc12,> 99.5 µM
20,O=C(Nc1ccc2c(c1)CNC2)c1ccc2[nH]ccc2c1,> 99.5 µM
21,O=C(Nc1cc2c(c(C3=CCS(=O)(=O)CC3)c1)CNC2)c1cc(F)cc2[nH]ncc12,50 µM
22,CNC(=O)[C@H](Nc1cc(CN)cc(-c2nn[nH]n2)c1)c1cc(Cl)cc(C2CC2)c1,> 99.5 µM
23,O=C(Nc1cc2c(c(C3=CCOCC3)c1)CNC2)c1cc(F)cc2[nH]ncc12,29.9 µM
24,O=C(Nc1cc(Cl)cc(C(=O)Nc2cccc(-n3nn[nH]c3=O)c2)c1)OCc1ccccc1,13.9 µM
